Data reported in patent US20150291514A1, “N-Aminosulfonyl Benzamides” (Pfizer Limited, priority 2012, published 2015).
Where a name gives a salt, the structure may show the parent alone.

These compounds were tested against T1, Nav1.7 (or SCN9A) channel (Homo sapiens, UniProt Q15858) (assay: Nav1.7 (hSCN9A) PatchXpress electrophysiology assay). Conditions: estimated IC50 from single point electrophysiology data; PatchXpress platform; HEK cells expressing hSCN9A, held at V1/2 of inactivation; read-out: Nav1.7 EIC50.
T1 construct: expressed in transfected cells
Format: cell-based
Procedure: The ability of the compounds of formula (I) to block the Nav1.7 (or SCN9A) channel were measured using the assay described below.
Human Embryonic Kidney (HEK) cells were transfected with an hSCN9A construct using lipofectamine reagent (Invitrogen), using standard techniques. Cells stably expressing the hSCN9A constructs were identified by their resistance to G-418 (400 μg/ml). Clones were screened for expression using the whole-cell voltage-clamp technique.
HEK cells stably transfected with hSCN9A were maintained in DMEM medium supplemented with 10% heat-inactivated fetal bovine serum and 400 μg/ml G-418 in an incubator at 37° C. with a humidified atmosphere of 10% CO2. For HTS, cells were harvested from flasks by trypsinization and replated in an appropriate multi-well plate (typically 96 or 384 wells/plate) such that confluence would be achieved within 24 hours of plating. For electrophysiological studies, cells were removed from the culture flask by brief trypsinization and re-plated at low density onto glass cover slips. Cells were typically used for electrophysiological experiments within 24 to 72 hours after plating.
Cover slips containing HEK cells expressing hSCN9A were placed in a bath on the stage of an inverted microscope and perfused (approximately 1 ml/minutes) with extracellular solution of the following composition: 138 mM NaCl, 2 mM CaCl2, 5.4 mM KCl, 1mM MgCl2, 10 mM glucose, and 10 mM HEPES, pH 7.4, with NaOH. […] The osmolarity of the extracellular and intracellular solutions was 300 mOsm/kg and 295 mOsm/kg, respectively. All recordings were made at room temperature (22-24° C.) using AXOPATCH 200B amplifiers and PCLAMP software (Axon Instruments, Burlingame, Calif.).
hSCN9A currents in HEK cells were measured using the whole-cell configuration of the patch-clamp technique (Hamill et al., 1981). Uncompensated series resistance was typically 2 to 5 mega ohms and >85% series resistance compensation was routinely achieved. As a result, voltage errors were negligible and no correction was applied. Current records were acquired at 20 to 50 KHz and filtered at 5 to 10 KHz.
HEK cells stably transfected with hSCN9A were viewed under Hoffman contrast optics and placed in front of an array of flow pipes emitting either control or compound-containing extracellular solutions. All compounds were dissolved in dimethyl sulfoxide to make 10 mM stock solutions, which were then diluted into extracellular solution to attain the final concentrations desired. […] The voltage-dependence of inactivation was determined by applying a series of depolarizing prepulses (8 sec long in 10 mV increments) from a negative holding potential. The voltage was then immediately stepped to 0 mV to assess the magnitude of the sodium current. Currents elicited at 0 mV were plotted as a function of prepulse potential to allow estimation of the voltage at which 50% of the channels were inactivated (midpoint of inactivation or V1/2). Compounds were tested for their ability to inhibit hSCN9A sodium channels by activating the channel with a 20 msec voltage step to 0 mV following an 8 second conditioning prepulse to the empirically determined V1/2. Compound effect (% inhibition) was determined by difference in current amplitude before and after application of test compounds. For ease of comparison, “estimated IC-50” (EIC50) values were calculated from single point electrophysiology data by the following equation, (tested concentration, uM)×(100-% inhibition/% inhibition). Inhibition values <20% and >80% were excluded from the calculation.
Electrophysiological assays were conducted with PatchXpress 7000 hardware and associated software (Molecular Devices Corp). All assay buffers and solutions were identical to those used in conventional whole-cell voltage clamp experiments described above. hSCN9A cells were grown as above to 50%-80% confluency and harvested by trypsinization. […]

T1 sequence (Q15858 whole entry): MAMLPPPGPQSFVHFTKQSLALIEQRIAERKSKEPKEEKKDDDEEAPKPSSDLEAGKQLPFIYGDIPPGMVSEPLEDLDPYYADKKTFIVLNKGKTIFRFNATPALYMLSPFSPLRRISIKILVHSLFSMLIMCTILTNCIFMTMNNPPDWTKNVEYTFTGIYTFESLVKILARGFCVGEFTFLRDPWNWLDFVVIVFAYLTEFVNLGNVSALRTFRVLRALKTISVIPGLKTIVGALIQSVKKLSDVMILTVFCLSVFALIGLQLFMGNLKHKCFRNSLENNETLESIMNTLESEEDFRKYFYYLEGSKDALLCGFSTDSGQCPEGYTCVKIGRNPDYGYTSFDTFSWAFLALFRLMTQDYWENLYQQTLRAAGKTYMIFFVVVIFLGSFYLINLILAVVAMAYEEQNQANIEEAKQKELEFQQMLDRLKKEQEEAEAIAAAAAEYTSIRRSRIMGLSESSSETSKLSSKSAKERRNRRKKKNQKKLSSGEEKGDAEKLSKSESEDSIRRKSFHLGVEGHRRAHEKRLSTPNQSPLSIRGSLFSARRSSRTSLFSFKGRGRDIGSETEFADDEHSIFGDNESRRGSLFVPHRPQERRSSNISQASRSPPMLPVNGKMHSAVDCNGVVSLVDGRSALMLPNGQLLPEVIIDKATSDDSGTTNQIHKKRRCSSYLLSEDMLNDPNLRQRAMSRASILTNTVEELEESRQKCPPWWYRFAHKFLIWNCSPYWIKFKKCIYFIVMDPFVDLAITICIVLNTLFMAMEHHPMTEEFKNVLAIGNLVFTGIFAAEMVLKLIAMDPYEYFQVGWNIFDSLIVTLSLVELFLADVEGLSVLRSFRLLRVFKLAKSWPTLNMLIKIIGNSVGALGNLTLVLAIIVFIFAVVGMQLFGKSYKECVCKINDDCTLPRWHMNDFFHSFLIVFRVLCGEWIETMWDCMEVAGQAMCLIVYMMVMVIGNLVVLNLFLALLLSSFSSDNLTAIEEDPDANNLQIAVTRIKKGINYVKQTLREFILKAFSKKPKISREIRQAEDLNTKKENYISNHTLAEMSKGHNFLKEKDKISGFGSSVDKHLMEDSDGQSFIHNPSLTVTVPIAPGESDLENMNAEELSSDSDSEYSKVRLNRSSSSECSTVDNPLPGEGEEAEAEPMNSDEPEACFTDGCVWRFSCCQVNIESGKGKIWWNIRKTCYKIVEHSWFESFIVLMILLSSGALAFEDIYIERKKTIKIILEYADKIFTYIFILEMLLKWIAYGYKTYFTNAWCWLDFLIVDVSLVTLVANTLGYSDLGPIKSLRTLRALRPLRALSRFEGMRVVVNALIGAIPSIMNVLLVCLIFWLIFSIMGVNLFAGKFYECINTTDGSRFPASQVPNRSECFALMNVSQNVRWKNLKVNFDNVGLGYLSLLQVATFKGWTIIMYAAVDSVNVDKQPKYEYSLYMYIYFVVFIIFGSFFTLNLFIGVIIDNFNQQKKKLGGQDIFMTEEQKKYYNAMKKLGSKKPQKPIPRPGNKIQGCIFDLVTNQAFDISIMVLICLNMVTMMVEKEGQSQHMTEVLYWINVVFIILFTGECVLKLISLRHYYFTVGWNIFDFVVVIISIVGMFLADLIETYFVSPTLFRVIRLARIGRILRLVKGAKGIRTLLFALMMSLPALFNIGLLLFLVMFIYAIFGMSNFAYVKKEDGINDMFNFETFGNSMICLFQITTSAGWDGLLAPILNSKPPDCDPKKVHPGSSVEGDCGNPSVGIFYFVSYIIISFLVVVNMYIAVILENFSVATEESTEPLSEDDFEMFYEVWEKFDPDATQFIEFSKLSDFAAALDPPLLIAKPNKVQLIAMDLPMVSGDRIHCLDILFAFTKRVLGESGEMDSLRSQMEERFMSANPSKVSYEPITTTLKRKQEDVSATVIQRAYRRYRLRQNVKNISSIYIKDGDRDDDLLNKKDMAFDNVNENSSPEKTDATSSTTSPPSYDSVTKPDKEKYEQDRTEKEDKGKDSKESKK

| Compound | IC50 |
| --- | --- |
| CNS(=O)(=O)NC(=O)c1cc(F)c(Oc2cnc(OC(C)C)c(Cl)c2)cc1F [Example 31, 4-[(5-chloro-6-isopropoxypyridin-3-yl)oxy]-N-[(methylamino)sulfonyl]-2,5-difluorobenzamide] | 6600 nM |
| CN(C)S(=O)(=O)NC(=O)c1cc(F)c(Oc2cnc(OCC3CC3)c(Cl)c2)cc1F [Example 32, 4-[(5-chloro-6-(cyclopropylmethoxy)pyridin-3-yl)oxy]-N-[(dimethylamino)sulfonyl]-2,5-difluorobenzamide] | 290 nM |
| CN(C)S(=O)(=O)NC(=O)c1cc(F)c(Oc2cnc(OCC(C)(C)F)c(Cl)c2)cc1F [Example 33, 4-[(5-chloro-6-(2-fluoro-2-methylpropoxy)pyridin-3-yl)oxy]-N-[(dimethylamino)sulfonyl]-2,5-difluorobenzamide diethylamine salt] | 500 nM |
| CN(C)S(=O)(=O)NC(=O)c1cc(F)c(Oc2cnc(OCC(F)(F)F)c(Cl)c2)cc1F [Example 34, 4-[(5-chloro-6-(2,2,2-trifluoroethoxy)pyridin-3-yl)oxy]-N-[(dimethylamino)sulfonyl]-2,5-difluorobenzamide diethylamine salt] | 590 nM |
| CN(C)S(=O)(=O)NC(=O)c1cc(F)c(Oc2cc(C(F)(F)F)c(Cl)cn2)cc1F [Example 35, 4-((5-chloro-4-(trifluoromethyl)pyridin-2-yl)oxy)-N-(N,N-dimethylsulfamoyl)-2,5-difluorobenzamide] | 2500 nM |
| CC(Oc1ncc(Oc2cc(F)c(C(=O)NS(=O)(=O)N(C)C)cc2F)cc1Cl)C(F)(F)F (stereo not shown) [Example 36, 4-((5-chloro-6-((1,1,1-trifluoropropan-2-yl)oxy)pyridin-3-yl)oxy)-N-[(dimethylamino)sulfonyl]-2,5-difluorobenzamide] | 660 nM |
| CN(C)S(=O)(=O)NC(=O)c1cc(F)c(Oc2cnc(OC(C(F)(F)F)C(F)(F)F)c(Cl)c2)cc1F [Example 37] | 470 nM |
| CC(C)Oc1ncc(Oc2cc(F)c(C(=O)NS(=O)(=O)N3CCC3)cc2F)cc1Cl [Example 38, N-(azetidin-1-ylsulfonyl)-4-(5-chloro-6-isopropoxypyridin-3-yl)oxy)-2,5-difluorobenzamide diethylamine salt] | 180 nM |
| O=C(NS(=O)(=O)N1CCC1)c1cc(Cl)c(Oc2cnc(OCC(F)(F)C(F)F)c(Cl)c2)cc1F [Example 41, N-(azetidin-1-ylsulfonyl)-5-chloro-4-{[5-chloro-6-(2,2,3,3-tetrafluoropropoxy)pyridin-3-yl]oxy}-2-fluorobenzamide] | 100 nM |
| O=C(NS(=O)(=O)N1CCC1)c1cc(Cl)c(Oc2ccc(Cl)c(Cl)c2)cc1F [Example 42, N-(azetidin-1-ylsulfonyl)-5-chloro-4-(3,4-dichlorophenoxy)-2-fluorobenzamide] | 100 nM |
